System: HLH-30
Test: HLH-30 expression and activity in C. elegans (GFP reporter, immunoblot, qRT-PCR)
Type: in vivo
Conditions: for HLH-30:GFP protein by immunoblot: MAH235 young adult worms
Procedure: FIG. 9A-9B illustrates that coumarin 106 (“C1”. “AIC106”) induces TFEB (HLH-30) signaling in C. elegans. FIG. 9A) Nuclear TFEB homologue HLH-30 levels in HLH-30 GFP tagged worms grown from day 1 at 20° C. as a measure of TFEB activation. Values are reported as average GFP intensity visualized at a young adult stage, day-5; **p<0.0002 versus control. FIG. 9B) TFEB mRNA levels by qPCR following 24 hrs of C1 treatment (10 μM 20 μM) in worms+/−HLH30 RNAi. Values represent RNA levels versus DMSO-only control RNAi; *p<0.001 versus control RNAi.
FIG. 18, panels A-F: AIC106 (Autophagy Inducing Coumarin-106) induces transcription of TFEB and its targets in vitro in rat N27 neuronal cells and in vivo in C. elegans. Panel A) Relative fold change in TFEB promoter activity compared to DMSO-control was determined by quantifying luciferase activity in supernatants collected from rat N27 neuronal cells post-24 hour treatment with C1 (AIC106), D1 and D2. [n=3 independent experiments (mean±SEM), **p<0.01, by one-way ANOVA with Dunnett's multiple comparisons test]. Panel B) Chemical structure of AIC106 and its structural derivative D1 and D2. Panel C) Relative fold change in mRNA of tfeb and its targets compared to DMSO-control were quantified using qRT-PCR in N27 neuronal cells post-24 hour treatment with AIC106 [N=3 independent experiments (mean±SD). *p<0.05, **p<0.01 and ****p<0.0001, by two-way ANOVA with Sidak's multiple comparisons test]. Panel D) Changes in HLH-30 expression were measured by quantifying GFP intensity in an individual GFP-tagged HLH-30 strain (MAH235) post-24 hours treatment with AIC106 and DMSO-control. [N=3 independent experiments (mean±SD). ****p<0.0001, by unpaired t-test]. Panel E) HLH-30; GFP (MAH235) were monitored by fluorescence microscopy. Panel F) Relative fold change in mRNA of hlh-30 and its targets compared to DMSO-control were quantified using qRT-PCR in young adult wild type N2 worms post-24 hours treatment with AIC106. [N=3 independent experiments (mean±SD). *p<0.05, **p<0.01 and ***p<0.001, by two-way ANOVA with Sidak's multiple comparisons test].
FIG. 22, panels A-H: AIC106-induced HLH-30 expression is mediated by the nuclear hormone receptor DAF-12. Panel A) The upstream promoter region (2 kB) of hlh-30 was analyzed by JASPAR CORE database to determine DAF-12 binding sites (1: SEQ ID NO:1, 2: 1: SEQ ID NO:2, 3: SEQ ID NO:3, 4: SEQ ID NO:4, 5: SEQ ID NO:5, 6: SEQ ID NO:6, 7: SEQ ID NO:7, 8: SEQ ID NO:8, 9: SEQ ID NO:9, 10: SEQ ID NO:10, 11: SEQ ID NO:11, 12: SEQ ID NO:12). Panel B) Relative fold change in mRNA of hlh-30 compared to DMSO-control was quantified using qRT-PCR in young adult wild-type N2 and daf-12(rh61rh411) worms post-24 hours treatment with AIC106. [N=3 independent experiments (mean±SD). **p<0.01, by one-way ANOVA with Sidak's multiple comparisons test]. Panel C) Effects of AIC106 on DAF-12 activity was determined in a mammalian one-hybrid assay by quantifying changes in the luciferase activity of DAF-12 ligand (dafachronic acid, DA) induced treatment. [N=3 independent experiments (mean±SD). *p<0.05 **p<0.01 and ***p<0.001, by one-way ANOVA with Tukey's multiple comparisons test]. Panel D) Schematic diagram showing that addition of AIC106 or inhibition of DAF-12 ligand synthesis, which leads to un-liganded DAF-12 may result in enhanced HLH-30 expression. Panel E) Dafadine-A (DFA), a specific inhibitor of key enzyme required for synthesis of DAF-12 ligand induces HLH-30 expression. Immunoblot for GFP was performed on protein lysate of HLH-30; GFP (MAH235) young adult worms treated with DFA or DMSO-control for 24 hours. Panel F) Protection against mitochondrial toxin (FCCP) was determined by quantifying survival of young adult worms treated 24 hours with DFA or DMSO-control. [N=3 independent experiments (mean±SD). **p<0.01, by two-way ANOVA with Tukey's multiple comparisons test]. […]

**Q.** For O=c1oc2c3c4c(cc2c2c1CCC2)CCCN4CCC3 [C1, 2,3,6,7,10,11-Hexahydro-1H,5H-cyclopenta(3,4)(1)benzopyrano(6,7,8-ij)quinolizin-12(9H)-one], which “activity and expression of HLH-30” value (Example 1 (FIG. 9)) is on record?
**A.** induction of activity and expression of the worm TFEB homologue HLH-30

**Q.** And the “HLH-30 expression (GFP intensity)” value (GFP-tagged HLH-30 strain MAH235, 24 hours)?
**A.** induces HLH-30 expression in worms

**Q.** What about the “HLH-30:GFP protein by immunoblot” value (24 hours) of the same molecule?
**A.** increase in HLH-30:GFP protein

**Q.** What about the “HLH-30 expression (hlh-30 mRNA)” value (daf-12(rh61rh411) null mutant) of the same molecule?
**A.** failed to induce HLH-30 expression

**Q.** And the “mRNA levels of HLH-30 target genes” value (wild type N2 worms, 24 hours)?
**A.** mRNA levels of several HLH-30 target genes were also increased

**Q.** How did the “HLH-30:GFP protein by immunoblot” value (24 hours) turn out when Cc1cccc(C)c1OCc1cc(C(=O)N2CCC(c3ccncc3)CC2)no1 [DFA, dafadine-A, reference compound] was run?
**A.** significant increase in HLH-30 expression
